The subject of test [1] is myeloma cell lines. The test can be described thus: Apoptosis assay (Annexin V/PI staining, TUNEL), myeloma cell lines. Type of test: cell-based, human. As to conditions: for protection from β2m-induced apoptosis / spontaneous apoptosis of myeloma cells: IL-6 20 ng/ml or IGF-I 50 ng/ml, ARK-RS and RPMI-8226; for protection from B2 anti-β2m antibody-induced apoptosis: cytokines added to myeloma cells. The procedure: (§1) The fraction of apoptotic cells was determined by staining cells with Annexin V-fluorescein isothiocyanate (FITC) (Immunotech) and propidium iodide (PI) (Sigma) (Vermes, I., et al., J. Immunol. Methods, 184:39-51, 1995). […] 5 μl of Annexin V-FITC (BD PharMingen, San Diego, Calif.) were added and incubated for 30 minutes. After washing and re-suspension of the cells in the binding buffer, 5 μl of PI were added, and the cells were ready for analysis. Percentages of apoptotic cells are the sum of PI^−/Annexin V^+ (newly apoptotic) and PI^+/Annexin V^+ (already apoptotic) cell populations (Vermes, I., et al., J. Immunol. Methods, 184:39-51, 1995).
A flow cytometry-based cell death detection kit (APO-BRDU) was purchased from BD PharMingen, and experiments were performed according to the manufacturer's protocol.

The next test has as its system Jurkat cells. Put plainly: Apoptosis in Jurkat cells. As to conditions: Z-VAD-FMK 100 μM; antibody 100 ng/ml, 18-hour culture. Type of test: cell-based. The procedure:
as §1
A pan-caspase inhibitor, z-Val-Ala-Asp-fluoromethyl ketone (Z-VAD-FMK) or caspase I inhibitor V, was purchased from Calbiochem-Novabiochem. This peptide was dissolved in dimethylsulfoxide (DMSO, Sigma) and added to cell suspensions at a final concentration of 100 μM (final DMSO concentration of 0.25%).
When the pan-caspase inhibitor Z-VAD-FMK was added to the culture, activation and processing of caspase-3 (data not shown), cleavage of PARP (FIG. 5B), and apoptosis (FIG. 5C) were inhibited.

In a further test the test system is caspase-3 and PARP. Put plainly: Western blot of caspase-3 activation and PARP cleavage in myeloma cells. Type of test: cell-based, human. As to conditions: Z-VAD-FMK 100 μM; ARK-RS and RPMI-8226. (In general: A western blot detects proteins with antibodies after separation by electrophoresis.)
For test [2], the system named is myeloma cell lines. The following applies: RPMI-8226 and U266; cited from earlier work.

Procedure for caspase-3 and PARP: Cells were cultured with or without 40 μg/ml β2m for 48 hours, harvested, washed, and lysed with lysis buffer (50 mM Tris, pH 7.5, 140 mM NaCl, 5 mM EDTA, 5 mM NaN3, 1% Triton-X-100, 1% NP-40, 1× protease inhibitor cocktail). […] The membrane was stripped and reprobed with anti-β-actin antibody (Santa Cruz Biotechnology) to ensure equivalent protein loading. For detection of caspase-3 activation and cleavage of poly(ADP-ribose) polymerase (PARP), the membranes were immunoblotted with anti-caspase-3 antibody (Santa Cruz Biotechnology) or anti-PARP antibody (BD PharMingen). Secondary antibodies conjugated to horseradish peroxidase were used for detection, followed by enhanced chemiluminescence (Bio-Rad Laboratories, Hercules, Calif.) and autoradiography.

As to “IGF-I: recombinant human IGF-I (R&D Systems), growth and survival factor for myeloma cells”, in the test with myeloma cell lines [1], the “protection from β2m-induced apoptosis” value is on record as “only IL-6 protected myeloma cells”, the “spontaneous apoptosis of myeloma cells” value is on record as “reduced the percentage of cells undergoing spontaneous apoptosis” and the “protection from B2 anti-β2m antibody-induced apoptosis” value is reported as “do not protect myeloma cells”.
Take “z-Val-Ala-Asp-fluoromethyl ketone [Z-VAD-FMK]”: the “effect on β2m-induced apoptosis” value in the test on myeloma cell lines [1] (Z-VAD-FMK 100 μM, RPMI-8226, β2m 40 μg/ml, 48-hour culture) is listed as “inhibited”. In the test with Jurkat cells, the “effect on anti-Fas antibody 7C11-induced apoptosis” value is recorded as “abrogated apoptosis”. Further, the “effect on β2m-induced caspase-3 activation and PARP cleavage” value with caspase-3 and PARP was “inhibited”.
As to “IL-6: recombinant human IL-6 (R&D Systems), growth and survival factor for myeloma cells”, in the test on myeloma cell lines [1], the “protection from β2m-induced apoptosis” value is on record as “protected myeloma cells from β2m-induced apoptosis”, the “spontaneous apoptosis of myeloma cells” value is “reduced the percentage of cells undergoing spontaneous apoptosis” and the “protection from B2 anti-β2m antibody-induced apoptosis” value is “do not protect myeloma cells”.
Consider `N[C@@H](Cc1ccc(N(CCCl)CCCl)cc1)C(=O)O` [melphalan], for which the “sensitivity of myeloma cell lines to melphalan” value in the test on myeloma cell lines [2] is listed as “sensitive”.
